Here are results for 4 compounds from publication PMC6757289, “Design and Characterization of SGK3-PROTAC1, an Isoform Specific SGK3 Kinase PROTAC Degrader” (ACS Chemical Biology, 2019).

Holding throughout (assay): kinase profiling panel
Assay type in all cases: biochemical

One experiment has as its target OSR1 (Homo sapiens, UniProt O95747). As to conditions: read-out: % Activity Remaining. An excerpt:
(§1) Protein kinase profiling against a Dundee panel of 140 protein kinases was undertaken at the International Centre for Protein Kinase Profiling. The result for each kinase was presented as a mean kinase activity of the reaction taken in triplicate relative to a control sample treated with DMSO. Assay conditions and abbreviations are available at http://www.kinase-screen.mrc.ac.uk.

In the next experiment the target is ABL (Homo sapiens, UniProt P00519). As to conditions: read-out: % Activity Remaining.
From the text: as §1

Another experiment deals with JNK1 (Homo sapiens, UniProt P45983). The conditions noted are these: read-out: % Activity Remaining.
From the text: as §1

Another experiment addresses Aurora B (Homo sapiens, UniProt Q96GD4). The conditions noted are these: read-out: % Activity Remaining.
From the text: as §1

In the next experiment the target is T1, NUAK1 (Homo sapiens, UniProt O60285).
T1 sequence (O60285 1-661): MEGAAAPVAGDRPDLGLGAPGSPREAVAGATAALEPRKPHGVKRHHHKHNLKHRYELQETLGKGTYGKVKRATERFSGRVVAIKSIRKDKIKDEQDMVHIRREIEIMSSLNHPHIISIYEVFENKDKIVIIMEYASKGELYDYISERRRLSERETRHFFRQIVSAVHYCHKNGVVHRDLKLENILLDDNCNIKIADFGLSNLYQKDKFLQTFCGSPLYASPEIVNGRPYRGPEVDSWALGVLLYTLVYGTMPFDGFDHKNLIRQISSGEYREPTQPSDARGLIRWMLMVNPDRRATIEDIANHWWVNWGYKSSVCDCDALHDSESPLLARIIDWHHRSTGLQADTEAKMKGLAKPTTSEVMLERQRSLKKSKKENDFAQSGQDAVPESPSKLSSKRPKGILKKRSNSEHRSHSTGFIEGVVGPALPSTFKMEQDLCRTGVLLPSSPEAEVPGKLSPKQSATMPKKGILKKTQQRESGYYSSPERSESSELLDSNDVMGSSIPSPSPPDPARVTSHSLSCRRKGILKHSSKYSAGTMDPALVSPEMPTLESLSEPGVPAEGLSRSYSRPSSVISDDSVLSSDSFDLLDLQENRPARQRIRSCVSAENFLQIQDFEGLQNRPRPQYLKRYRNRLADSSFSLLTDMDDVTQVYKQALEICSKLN
As to conditions: read-out: % Activity Remaining.
From the text: as §1

A further experiment concerns the target PAK2 (Homo sapiens, UniProt Q13177). As to conditions: read-out: % Activity Remaining.
From the text: as §1

The target of another experiment is MKK2 (Homo sapiens, UniProt P36507). As to conditions: read-out: % Activity Remaining.
From the text: as §1

The target of the next experiment is HIPK3 (Homo sapiens, UniProt Q9H422). As to conditions: read-out: % Activity Remaining.
From the text: as §1

Another experiment has as its target TTBK2 (Homo sapiens, UniProt Q6IQ55). As to conditions: read-out: % Activity Remaining.
From the text: as §1

The target of a further experiment is JNK3 (Homo sapiens, UniProt P53779). The conditions noted are these: read-out: % Activity Remaining.
From the text: as §1

The target in the next experiment is T2, SGK1 (Homo sapiens, UniProt O00141).
T2 sequence (O00141 1-431): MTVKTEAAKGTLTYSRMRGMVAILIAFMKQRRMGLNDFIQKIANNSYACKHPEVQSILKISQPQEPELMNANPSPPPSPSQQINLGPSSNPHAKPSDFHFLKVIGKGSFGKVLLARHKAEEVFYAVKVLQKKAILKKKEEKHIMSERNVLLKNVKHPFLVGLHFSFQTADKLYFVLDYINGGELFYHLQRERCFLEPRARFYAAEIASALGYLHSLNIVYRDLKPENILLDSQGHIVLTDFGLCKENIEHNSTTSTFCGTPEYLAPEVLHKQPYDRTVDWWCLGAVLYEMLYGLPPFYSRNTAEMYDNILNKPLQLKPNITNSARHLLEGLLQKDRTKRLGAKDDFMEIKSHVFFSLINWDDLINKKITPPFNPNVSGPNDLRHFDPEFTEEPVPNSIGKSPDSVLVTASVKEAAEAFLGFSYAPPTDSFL
As to conditions: read-out: % Activity Remaining.
From the text: as §1

The target in another experiment is CK1 delta (Homo sapiens, UniProt P48730). As to conditions: read-out: % Activity Remaining.
From the text: as §1

The target in the next experiment is SmMLCK (Homo sapiens, UniProt Q15746).
From the text: as §1

The target of another experiment is MST4 (Homo sapiens, UniProt Q9P289). As to conditions: read-out: % Activity Remaining.
From the text: as §1

In the next experiment the target is T3, Aurora A (Homo sapiens, UniProt O14965).
T3 sequence (O14965 1-403): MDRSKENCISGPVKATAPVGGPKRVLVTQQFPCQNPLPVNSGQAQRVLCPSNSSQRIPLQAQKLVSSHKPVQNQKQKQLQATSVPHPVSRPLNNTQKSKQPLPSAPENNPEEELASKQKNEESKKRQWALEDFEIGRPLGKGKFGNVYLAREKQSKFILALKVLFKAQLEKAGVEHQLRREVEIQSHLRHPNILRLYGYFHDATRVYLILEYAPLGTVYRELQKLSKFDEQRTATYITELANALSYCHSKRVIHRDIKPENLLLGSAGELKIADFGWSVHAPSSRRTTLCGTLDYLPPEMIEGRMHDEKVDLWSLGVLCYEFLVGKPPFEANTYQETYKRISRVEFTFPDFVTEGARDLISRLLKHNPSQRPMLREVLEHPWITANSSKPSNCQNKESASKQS
The conditions noted are these: read-out: % Activity Remaining.
From the text: as §1

Where two headings read alike, the source gives them in different places.

Sequence of HIPK3 (Q9H422 whole entry): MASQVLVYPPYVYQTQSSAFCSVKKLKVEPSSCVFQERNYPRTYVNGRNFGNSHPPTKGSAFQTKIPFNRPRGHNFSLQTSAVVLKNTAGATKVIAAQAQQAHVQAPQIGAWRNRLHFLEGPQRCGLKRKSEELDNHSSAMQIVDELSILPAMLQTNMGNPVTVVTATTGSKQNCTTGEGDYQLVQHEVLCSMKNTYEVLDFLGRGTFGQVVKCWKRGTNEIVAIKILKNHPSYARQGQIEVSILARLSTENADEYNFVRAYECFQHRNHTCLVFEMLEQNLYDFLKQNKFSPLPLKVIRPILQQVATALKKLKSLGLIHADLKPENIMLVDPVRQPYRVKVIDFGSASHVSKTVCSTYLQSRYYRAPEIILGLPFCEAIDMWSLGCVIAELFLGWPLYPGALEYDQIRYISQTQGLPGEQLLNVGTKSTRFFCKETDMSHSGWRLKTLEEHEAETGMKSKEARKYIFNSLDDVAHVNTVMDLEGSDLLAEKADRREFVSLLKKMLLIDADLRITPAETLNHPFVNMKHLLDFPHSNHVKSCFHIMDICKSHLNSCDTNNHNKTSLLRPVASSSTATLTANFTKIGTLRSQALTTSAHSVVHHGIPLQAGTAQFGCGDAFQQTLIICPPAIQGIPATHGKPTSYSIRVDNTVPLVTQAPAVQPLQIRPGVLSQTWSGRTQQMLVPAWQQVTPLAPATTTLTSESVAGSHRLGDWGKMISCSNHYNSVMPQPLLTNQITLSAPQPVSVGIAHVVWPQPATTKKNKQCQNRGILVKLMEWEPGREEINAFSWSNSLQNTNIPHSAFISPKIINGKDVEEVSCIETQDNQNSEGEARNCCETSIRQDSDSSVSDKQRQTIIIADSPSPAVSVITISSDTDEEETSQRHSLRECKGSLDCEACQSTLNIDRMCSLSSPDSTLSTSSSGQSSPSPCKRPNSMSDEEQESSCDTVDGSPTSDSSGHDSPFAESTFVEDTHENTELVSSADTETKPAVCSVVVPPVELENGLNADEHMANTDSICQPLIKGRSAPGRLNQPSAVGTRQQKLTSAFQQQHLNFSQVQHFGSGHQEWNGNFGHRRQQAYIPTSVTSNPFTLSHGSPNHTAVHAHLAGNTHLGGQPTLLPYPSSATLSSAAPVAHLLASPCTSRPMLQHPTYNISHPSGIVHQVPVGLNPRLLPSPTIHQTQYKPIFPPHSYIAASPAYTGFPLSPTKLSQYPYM
Sequence of SmMLCK (Q15746 923-1914): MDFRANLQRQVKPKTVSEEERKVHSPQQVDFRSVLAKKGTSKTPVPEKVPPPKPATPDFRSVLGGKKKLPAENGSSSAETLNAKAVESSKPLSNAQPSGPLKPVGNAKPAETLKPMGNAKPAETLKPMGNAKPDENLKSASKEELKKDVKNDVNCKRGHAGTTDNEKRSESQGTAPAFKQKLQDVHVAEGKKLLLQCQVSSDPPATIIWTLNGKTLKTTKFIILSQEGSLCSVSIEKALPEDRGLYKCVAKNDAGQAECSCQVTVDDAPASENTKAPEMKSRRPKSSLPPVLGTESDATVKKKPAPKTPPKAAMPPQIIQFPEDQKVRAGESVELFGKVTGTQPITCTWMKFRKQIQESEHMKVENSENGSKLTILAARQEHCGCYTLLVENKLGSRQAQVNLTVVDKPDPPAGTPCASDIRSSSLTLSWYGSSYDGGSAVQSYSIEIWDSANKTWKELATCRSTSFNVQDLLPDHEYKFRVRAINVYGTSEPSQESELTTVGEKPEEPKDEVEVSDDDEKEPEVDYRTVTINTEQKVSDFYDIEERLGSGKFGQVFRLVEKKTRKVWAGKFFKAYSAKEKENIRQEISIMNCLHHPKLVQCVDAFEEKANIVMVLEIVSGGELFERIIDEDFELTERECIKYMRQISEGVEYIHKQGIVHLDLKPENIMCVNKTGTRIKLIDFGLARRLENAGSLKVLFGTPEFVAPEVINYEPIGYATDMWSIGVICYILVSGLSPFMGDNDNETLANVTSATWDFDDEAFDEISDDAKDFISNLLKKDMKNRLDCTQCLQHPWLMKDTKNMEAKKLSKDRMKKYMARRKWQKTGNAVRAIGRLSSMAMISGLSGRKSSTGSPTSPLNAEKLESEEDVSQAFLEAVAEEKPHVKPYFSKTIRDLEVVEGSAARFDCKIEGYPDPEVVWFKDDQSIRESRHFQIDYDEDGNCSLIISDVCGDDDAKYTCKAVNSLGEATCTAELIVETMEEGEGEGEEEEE
Sequence of OSR1 (O95747 whole entry): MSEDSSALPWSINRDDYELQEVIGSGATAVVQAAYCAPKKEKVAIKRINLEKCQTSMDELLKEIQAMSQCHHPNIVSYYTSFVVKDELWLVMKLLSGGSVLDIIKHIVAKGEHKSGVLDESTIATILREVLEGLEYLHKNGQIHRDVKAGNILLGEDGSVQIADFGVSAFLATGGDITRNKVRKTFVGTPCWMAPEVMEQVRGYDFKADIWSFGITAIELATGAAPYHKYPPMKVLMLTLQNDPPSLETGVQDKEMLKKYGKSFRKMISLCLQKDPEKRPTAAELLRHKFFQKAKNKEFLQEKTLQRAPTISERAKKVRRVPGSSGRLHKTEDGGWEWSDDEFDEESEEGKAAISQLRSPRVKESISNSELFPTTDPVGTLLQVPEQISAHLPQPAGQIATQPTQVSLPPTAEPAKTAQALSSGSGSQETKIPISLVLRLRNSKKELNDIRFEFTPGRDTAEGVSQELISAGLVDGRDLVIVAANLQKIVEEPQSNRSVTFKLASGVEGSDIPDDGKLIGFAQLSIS
Sequence of ABL (P00519 whole entry): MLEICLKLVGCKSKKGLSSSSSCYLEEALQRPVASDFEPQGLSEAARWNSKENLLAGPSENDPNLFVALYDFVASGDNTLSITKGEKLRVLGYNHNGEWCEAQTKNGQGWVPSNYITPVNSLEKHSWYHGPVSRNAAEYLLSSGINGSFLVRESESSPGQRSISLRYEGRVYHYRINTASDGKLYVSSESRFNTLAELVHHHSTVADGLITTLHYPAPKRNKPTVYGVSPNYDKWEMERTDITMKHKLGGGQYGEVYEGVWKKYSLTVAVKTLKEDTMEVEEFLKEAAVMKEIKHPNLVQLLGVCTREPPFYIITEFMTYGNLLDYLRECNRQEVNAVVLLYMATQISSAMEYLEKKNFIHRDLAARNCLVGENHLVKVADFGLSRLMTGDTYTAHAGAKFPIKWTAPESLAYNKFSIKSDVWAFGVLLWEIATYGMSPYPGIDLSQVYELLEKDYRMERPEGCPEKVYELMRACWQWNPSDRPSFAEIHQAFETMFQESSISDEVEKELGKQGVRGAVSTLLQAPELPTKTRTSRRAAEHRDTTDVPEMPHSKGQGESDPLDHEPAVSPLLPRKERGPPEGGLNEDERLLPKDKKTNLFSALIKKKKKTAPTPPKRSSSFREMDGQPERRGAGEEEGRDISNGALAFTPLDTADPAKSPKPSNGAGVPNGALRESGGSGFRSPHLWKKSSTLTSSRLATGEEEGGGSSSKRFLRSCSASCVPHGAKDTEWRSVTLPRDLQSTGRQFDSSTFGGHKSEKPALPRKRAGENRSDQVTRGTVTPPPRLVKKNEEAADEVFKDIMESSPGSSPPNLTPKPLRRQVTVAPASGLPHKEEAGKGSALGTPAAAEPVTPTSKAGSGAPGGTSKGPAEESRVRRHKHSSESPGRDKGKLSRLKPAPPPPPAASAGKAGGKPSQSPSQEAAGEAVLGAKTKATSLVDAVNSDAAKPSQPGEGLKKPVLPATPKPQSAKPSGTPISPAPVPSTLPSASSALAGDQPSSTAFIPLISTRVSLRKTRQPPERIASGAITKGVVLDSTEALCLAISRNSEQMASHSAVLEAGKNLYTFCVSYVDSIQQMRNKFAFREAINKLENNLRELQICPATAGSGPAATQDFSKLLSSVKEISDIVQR
Sequence of MKK2 (P36507 whole entry): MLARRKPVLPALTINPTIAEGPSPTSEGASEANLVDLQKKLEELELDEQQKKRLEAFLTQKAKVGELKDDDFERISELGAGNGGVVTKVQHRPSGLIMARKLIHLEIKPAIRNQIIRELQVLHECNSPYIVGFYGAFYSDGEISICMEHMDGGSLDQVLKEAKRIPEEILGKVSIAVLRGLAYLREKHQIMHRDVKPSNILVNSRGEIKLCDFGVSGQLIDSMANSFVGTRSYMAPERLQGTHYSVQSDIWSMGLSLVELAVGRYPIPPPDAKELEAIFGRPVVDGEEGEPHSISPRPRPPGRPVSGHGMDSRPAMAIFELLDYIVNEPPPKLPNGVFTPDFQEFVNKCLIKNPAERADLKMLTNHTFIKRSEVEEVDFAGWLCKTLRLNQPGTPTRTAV
Sequence of JNK1 (P45983 whole entry): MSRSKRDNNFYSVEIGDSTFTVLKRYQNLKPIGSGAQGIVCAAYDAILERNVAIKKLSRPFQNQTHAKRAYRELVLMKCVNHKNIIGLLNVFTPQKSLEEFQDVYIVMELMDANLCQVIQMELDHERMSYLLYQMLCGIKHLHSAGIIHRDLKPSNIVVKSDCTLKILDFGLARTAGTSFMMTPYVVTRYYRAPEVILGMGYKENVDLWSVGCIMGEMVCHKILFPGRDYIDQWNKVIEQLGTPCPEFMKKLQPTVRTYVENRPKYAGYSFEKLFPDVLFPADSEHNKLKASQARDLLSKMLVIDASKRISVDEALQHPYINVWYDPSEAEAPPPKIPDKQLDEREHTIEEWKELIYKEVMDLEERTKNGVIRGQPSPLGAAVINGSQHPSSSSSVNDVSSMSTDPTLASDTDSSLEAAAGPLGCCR
Sequence of Aurora B (Q96GD4 whole entry): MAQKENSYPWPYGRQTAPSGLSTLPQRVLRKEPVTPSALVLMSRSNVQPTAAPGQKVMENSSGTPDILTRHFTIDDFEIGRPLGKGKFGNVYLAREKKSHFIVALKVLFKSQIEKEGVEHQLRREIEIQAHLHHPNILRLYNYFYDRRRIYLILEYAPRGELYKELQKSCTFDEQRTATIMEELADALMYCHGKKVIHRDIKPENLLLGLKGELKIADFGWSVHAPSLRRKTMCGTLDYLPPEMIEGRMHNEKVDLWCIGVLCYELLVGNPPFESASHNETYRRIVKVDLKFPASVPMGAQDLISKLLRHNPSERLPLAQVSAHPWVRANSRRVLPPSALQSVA

As usually defined, the remaining activity is the signal under treatment as a percentage of the control signal. With `COc1ccc(Cl)c(S(=O)(=O)Nc2ccc(-c3nc(OC[C@H]4CNCCO4)c4c(C)n[nH]c4n3)cc2)c1` [290-R, reference compound], the remaining activity at 1 µM on OSR1 came out at 110%; on ABL it was 88%; on JNK1, 101%; at Aurora B, 70%; on NUAK1, 91%; at PAK2, 90%. Besides, the remaining activity at 1 µM stood at 41% at MKK2; 109% on HIPK3; 114% at TTBK2; 104% at JNK3; 2% on SGK1; 65% on CK1 delta. In addition, the remaining activity at 1 µM at SmMLCK came to 23%; on MST4 it was 50%; at Aurora A, 108%.
In the case of `Cc1ccc(F)c(S(=O)(=O)Nc2ccc(-c3nc(OC[C@H]4CNCCO4)c4cn[nH]c4n3)cc2)c1` [308-R, reference compound], the remaining activity at 1 µM amounted to 75% at OSR1; 96% at ABL; 112% on JNK1; 115% on Aurora B; 103% on NUAK1; 53% on PAK2. Besides, the remaining activity at 1 µM on MKK2 came to 80%; on HIPK3, 44%; on TTBK2, 87%; on JNK3, 112%; on SGK1 it was 10%; at CK1 delta it was 121%. Besides, the remaining activity at 1 µM was determined as 74% on SmMLCK, 98% at MST4 and 109% at Aurora A.
With `Cc1ccc(F)c(S(=O)(=O)Nc2ccc(-c3nc(OC[C@H]4CN(CCCCCCOCCOCCOCC(=O)N[C@H](C(=O)N5C[C@H](O)C[C@H]5C(=O)NCc5ccc(-c6scnc6C)cc5)C(C)(C)C)CCO4)c4cn[nH]c4n3)cc2)c1` [SGK3-PROTAC1], the remaining activity at 1 µM on OSR1 (1 µM) turned out to be 103%; on ABL (1 µM), 111%; at JNK1 (1 µM), 117%; on Aurora B (1 µM), 93%; on NUAK1 (1 µM) it was 98%; on PAK2 (1 µM), 116%. In addition, the remaining activity at 1 µM on MKK2 (1 µM) was 114%; at HIPK3 (1 µM), 111%; at TTBK2 (1 µM), 94%; on JNK3 (1 µM), 92%; at SGK1 (1 µM) it was 34%; at CK1 delta (1 µM), 95%. For the same compound, the remaining activity at 1 µM turned out to be 53% at SmMLCK, 106% at MST4 (1 µM) and 90% on Aurora A (1 µM).
Turning to `Cc1ccc(F)c(S(=O)(=O)Nc2ccc(-c3nc(OC[C@H]4CN(CCCCCCOCCOCCOCC(=O)N[C@H](C(=O)N5C[C@@H](O)C[C@H]5C(=O)NCc5ccc(-c6scnc6C)cc5)C(C)(C)C)CCO4)c4cn[nH]c4n3)cc2)c1` [cisSGK3-PROTAC1], the remaining activity at 1 µM is 118% at OSR1 (1 µM); 112% on ABL (1 µM); 119% at JNK1 (1 µM); 95% on Aurora B (1 µM); 90% on NUAK1 (1 µM); 99% at PAK2 (1 µM). Further, the remaining activity at 1 µM on MKK2 (1 µM) turned out to be 124%; at HIPK3 (1 µM), 105%; on TTBK2 (1 µM), 90%; on JNK3 (1 µM) it was 83%; on SGK1 (1 µM), 51%; at CK1 delta (1 µM) it was 108%. The values for the remaining activity at 1 µM at SmMLCK, at MST4 (1 µM) and at Aurora A (1 µM) were 71%, 99% and 91%, respectively.
